Experimental data: PubChem BioAssay AID1963864 (Molecular Pharmacology Branch, DTP, NCI, 2024)

Test system: KRAS PDC multicell spheroid viability
Assay: Anticancer human tumor 521955-158-R6-J3-PDC patient-derived pancreatic carcinoma cell line growth inhibition [KRAS2]
Details: for IC50: curve of first compound; for viability, T/C: stronger effect = lower value
Method in brief: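 Combination screen of spheroid viability in tumor-cell co-cultures with endothelial (HUVEC) and mesenchymal stem cell stroma. Each agent was tested in half-log dilutions, topping at clinical Cmax or at 10 microM without a known Cmax.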

[1] = second compound 0.1 µM, first compound 0.0316 µM
[2] = second compound 0.1 µM, first compound 0.1 µM
[3] = second compound 0.1 µM, first compound 0.316 µM
[4] = second compound 0.1 µM, first compound 1 µM
[5] = second compound 0.1 µM, first compound 3.16 µM
[6] = second compound 0.1 µM, first compound 10 µM
[7] = second compound 0.316 µM, first compound 0.0316 µM
[8] = second compound 0.316 µM, first compound 0.1 µM
[9] = second compound 0.316 µM, first compound 0.316 µM
[10] = second compound 0.316 µM, first compound 1 µM
[11] = second compound 0.316 µM, first compound 3.16 µM
[12] = second compound 0.316 µM, first compound 10 µM
[13] = second compound 1 µM, first compound 0.0316 µM
[14] = second compound 1 µM, first compound 0.1 µM
[15] = second compound 1 µM, first compound 0.316 µM
[16] = second compound 1 µM, first compound 1 µM
[17] = second compound 1 µM, first compound 3.16 µM
[18] = second compound 1 µM, first compound 10 µM
[19] = second compound 3.16 µM, first compound 0.0316 µM
[20] = second compound 3.16 µM, first compound 0.1 µM
[21] = second compound 3.16 µM, first compound 0.316 µM
[22] = second compound 3.16 µM, first compound 1 µM
[23] = second compound 3.16 µM, first compound 3.16 µM
[24] = second compound 3.16 µM, first compound 10 µM
[25] = second compound 10 µM, first compound 0.0316 µM
[26] = second compound 10 µM, first compound 0.1 µM
[27] = second compound 10 µM, first compound 0.316 µM
[28] = second compound 10 µM, first compound 1 µM
[29] = second compound 10 µM, first compound 3.16 µM
[30] = second compound 10 µM, first compound 10 µM
[31] = second compound 0.1 µM, first compound 0.01 µM
[32] = second compound 0.316 µM, first compound 0.01 µM
[33] = second compound 1 µM, first compound 0.01 µM
[34] = second compound 3.16 µM, first compound 0.01 µM
[35] = second compound 10 µM, first compound 0.01 µM
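Also: drug exposure lasted seven days.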
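For viability, T/C in this document: 100% = DMSO vehicle wells and lower means fewer viable cells.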

| Structure (SMILES) | IC50 (second compound 0.1 µM) [µM] | IC50 (second compound 0.316 µM) [µM] | IC50 (second compound 1 µM) [µM] | IC50 (second compound 3.16 µM) [µM] | IC50 (second compound 10 µM) [µM] | viability, T/C [1] [%] | viability, T/C [2] [%] | viability, T/C [3] [%] | viability, T/C [4] [%] | viability, T/C [7] [%] | viability, T/C [8] [%] | viability, T/C [9] [%] | viability, T/C [10] [%] | viability, T/C [13] [%] | viability, T/C [14] [%] | viability, T/C [15] [%] | viability, T/C [16] [%] | viability, T/C [19] [%] | viability, T/C [20] [%] | viability, T/C [21] [%] | also measured |
| --- | --- | --- | --- | --- | --- | --- | --- | --- | --- | --- | --- | --- | --- | --- | --- | --- | --- | --- | --- | --- | --- |
| CC(C)NCC(C(=O)N1CCN(c2ncnc3c2C(C)CC3O)CC1)c1ccc(Cl)cc1 (stereo not given) + COc1cc2nc(C)nc(NC(C)c3cc(N)cc(C(F)(F)F)c3)c2cc1OC1CCOC1 | > 10 | > 10 | > 10 | > 10 | < 0.0316 | 96.1 | 90.2 | 76.1 | 84.9 | 83.8 | 79 | 75.7 | 70.3 | 82.3 | 83.8 | 73.5 | 69.2 | 63.3 | 62.1 | 67.2 | viability, T/C [5]: 72.8%; viability, T/C [6]: 71.8%; viability, T/C [11]: 77.7%; viability, T/C [12]: 64.6%; viability, T/C [17]: 70.5%; viability, T/C [18]: 59.6%; viability, T/C [22]: 63.7%; viability, T/C [23]: 72.1%; viability, T/C [24]: 67.7%; viability, T/C [25]: 44.1%; viability, T/C [26]: 40.2%; viability, T/C [27]: 46.1%; viability, T/C [28]: 28.4%; viability, T/C [29]: 27.1%; viability, T/C [30]: 16.7% |
| CC1COCCN1c1cc(-c2ccnn2C)c2ccnc(-c3ccn[nH]3)c2n1 (stereo not given) + COc1cc2nc(C)nc(NC(C)c3cc(N)cc(C(F)(F)F)c3)c2cc1OC1CCOC1 | > 3.16 | > 3.16 | > 3.16 | > 3.16 | < 0.01 | 85.4 | 71.3 | 78.3 | 65.5 | 79.6 | 79.1 | 71 | 64.4 | 78.2 | 78.3 | 68.6 | 66.8 | 71.6 | 62.4 | 54.6 | viability, T/C [31]: 100%; viability, T/C [5]: 80.4%; viability, T/C [32]: 82.8%; viability, T/C [11]: 75.3%; viability, T/C [33]: 88.5%; viability, T/C [17]: 74.8%; viability, T/C [34]: 77.6%; viability, T/C [22]: 64.3%; viability, T/C [23]: 59.1%; viability, T/C [35]: 41.5%; viability, T/C [25]: 48.4%; viability, T/C [26]: 45.3%; viability, T/C [27]: 34.1%; viability, T/C [28]: 47.6%; viability, T/C [29]: 43.4% |
| CC1OCC2(CCN(c3cnc(Sc4ccnc(N)c4Cl)c(N)n3)CC2)C1N (stereo not given) + COc1cc2nc(C)nc(NC(C)c3cc(N)cc(C(F)(F)F)c3)c2cc1OC1CCOC1 | > 10 | > 10 | > 10 | > 10 | < 0.0316 | 90.6 | 82.6 | 74.8 | 86.5 | 82.6 | 86.1 | 96.8 | 87.5 | 78 | 82.1 | 85 | 83.7 | 76.5 | 79.7 | 77.2 | viability, T/C [5]: 116%; viability, T/C [6]: 114%; viability, T/C [11]: 112%; viability, T/C [12]: 118%; viability, T/C [17]: 103%; viability, T/C [18]: 124%; viability, T/C [22]: 76.9%; viability, T/C [23]: 99.2%; viability, T/C [24]: 94.6%; viability, T/C [25]: 43.7%; viability, T/C [26]: 34%; viability, T/C [27]: 35.8%; viability, T/C [28]: 27.1%; viability, T/C [29]: 34.1%; viability, T/C [30]: 18% |
| CCN1CCN(Cc2ccc(Nc3ncc(F)c(-c4cc(F)c5nc(C)n(C(C)C)c5c4)n3)nc2)CC1 + COc1cc2nc(C)nc(NC(C)c3cc(N)cc(C(F)(F)F)c3)c2cc1OC1CCOC1 | > 1 | > 1 | > 1 | > 1 | < 0.00316 | 69.7 | 83.9 | 73.7 | 101 | 88.3 | 69.8 | 71.8 | 88.8 | 86.1 | 75.6 | 71.5 | 86.8 | 79.1 | 66.8 | 69.8 | viability, T/C (second compound 0.1 µM, first compound 0.00316 µM): 105%; viability, T/C [31]: 88%; viability, T/C (second compound 0.316 µM, first compound 0.00316 µM): 93.8%; viability, T/C [32]: 84.5%; viability, T/C (second compound 1 µM, first compound 0.00316 µM): 90.7%; viability, T/C [33]: 84.1%; viability, T/C (second compound 3.16 µM, first compound 0.00316 µM): 87.1%; viability, T/C [34]: 82.1%; viability, T/C [22]: 77.4%; viability, T/C (second compound 10 µM, first compound 0.00316 µM): 33.4%; viability, T/C [35]: 33.6%; viability, T/C [25]: 40.5%; viability, T/C [26]: 55.1%; viability, T/C [27]: 17.6%; viability, T/C [28]: 10% |
| CCNC(=O)CC1N=C(c2ccc(Cl)cc2)c2cc(OC)ccc2-n2c(C)nnc21 (stereo not given) + COc1cc2nc(C)nc(NC(C)c3cc(N)cc(C(F)(F)F)c3)c2cc1OC1CCOC1 | > 10 | > 10 | > 10 | > 10 | 0.0382 | 91.4 | 87.3 | 75.6 | 75.2 | 95.6 | 103 | 76.3 | 72.4 | 83.7 | 86.2 | 74.1 | 65.6 | 70.8 | 71.3 | 66.5 | viability, T/C [5]: 70.5%; viability, T/C [6]: 75.8%; viability, T/C [11]: 68.5%; viability, T/C [12]: 73.1%; viability, T/C [17]: 69.5%; viability, T/C [18]: 66.8%; viability, T/C [22]: 73.8%; viability, T/C [23]: 60.7%; viability, T/C [24]: 75.4%; viability, T/C [25]: 48.7%; viability, T/C [26]: 52%; viability, T/C [27]: 39.5%; viability, T/C [28]: 34.2%; viability, T/C [29]: 40%; viability, T/C [30]: 28.4% |
| Cn1nccc1Nc1nccc(-c2cc3c(s2)C(C)(C)N(CCN2CCOCC2)C3=O)n1 + COc1cc2nc(C)nc(NC(C)c3cc(N)cc(C(F)(F)F)c3)c2cc1OC1CCOC1 | > 10 | > 10 | > 10 | 6.16 | < 0.0316 | 88.5 | 111 | 96.4 | 85.5 | 86.5 | 111 | 103 | 81.9 | 79.1 | 111 | 99.6 | 82.2 | 83.6 | 110 | 94.8 | viability, T/C [5]: 79.6%; viability, T/C [6]: 64.8%; viability, T/C [11]: 71.2%; viability, T/C [12]: 57.7%; viability, T/C [17]: 65.4%; viability, T/C [18]: 56.1%; viability, T/C [22]: 73.7%; viability, T/C [23]: 55.9%; viability, T/C [24]: 45.8%; viability, T/C [25]: 26.8%; viability, T/C [26]: 30%; viability, T/C [27]: 16%; viability, T/C [28]: 14.1%; viability, T/C [29]: 6.82%; viability, T/C [30]: 3.23% |
